The compounds below were run against BRD4 (Homo sapiens, UniProt O60885) (assay: Time Resolved Fluorescence Resonance Energy Transfer (TR-FRET) binding assay, BRD4). Conditions: one of the FRET assays described; read-out: FRET BRD4 IC50.

| SMILES | IC50 [nM] |
| --- | --- |
| [2H]C([2H])([2H])c1nnn(C)c1-c1cnc2c3ccc(C(C)(C)O)cc3n(C(c3cc(C)on3)C3CCOCC3)c2c1 (centres unmarked) [Example 309, 2-{5-[(5-Methyl-1,2-oxazol-3-yl)(oxan-4-yl)methyl]-3-[4-(^2H3)methyl-1-methyl-1H-1,2,3-triazol-5-yl]-5H-pyrido[3,2-b]indol-7-yl}propan-2-ol] | < 25 |
| COCC(c1ccccc1)n1c2cc(C(C)(C)O)ccc2c2ncc(-c3c(C)noc3C)cc21 (centres unmarked) [Example 5] | < 5 |
| COc1ccc(C(C2CCOCC2)n2c3cc(C(C)(C)O)ccc3c3ncc(-c4c(C)nnn4C)cc32)cc1 (single isomer, unassigned) [Example 250, 2-[3-(Dimethyl-1H-1,2,3-triazol-5-yl)-5-[(4-methoxyphenyl)(oxan-4-yl)methyl]-5H-pyrido[3,2-b]indol-7-yl]propan-2-ol] | < 25 |
| Cc1noc(C)c1-c1cnc2c3ccc(C(C)(C)O)cc3n(CC3CCC(F)(F)CC3)c2c1 [Example 49] | < 5 |
| Cc1noc(C)c1-c1cnc2c3c(C(C)(C)O)cccc3n(Cc3ccccc3)c2c1 [Example 53, 2-[5-Benzyl-3-(dimethyl-1,2-oxazol-4-yl)-5H-pyrido[3,2-b]indol-9-yl]propan-2-ol] | < 1500 |
| [2H]C([2H])([2H])c1nnn(C)c1-c1cnc2c3ccc(C(C)(C)O)c(F)c3n(C(c3ccc(F)cn3)C3CCOCC3)c2c1 (single isomer, unassigned) [Example 324] | < 25 |
| [2H]C([2H])([2H])c1nnn(C)c1-c1cnc2c3c(OCC(C)(F)F)ccc(S(C)(=O)=O)c3n([C@H](c3ccccc3)C3CCOCC3)c2c1 [Example 230, 5-[9-(2,2-Difluoropropoxy)-6-methanesulfonyl-5-[(S)-oxan-4-yl(phenyl)methyl]-5H-pyrido[3,2-b]indol-3-yl]-4-(^2H3)methyl-1-methyl-1H-1,2,3-triazole] | < 5 |
| Cc1nnn(C)c1-c1cnc2c3ccc(CS(C)(=O)=O)cc3n([C@@H](c3ncccc3F)C3CCOCC3)c2c1 [Example 333] | < 5 |
| [2H]C([2H])([2H])c1nnn(C)c1-c1cnc2c3c(S(C)(=O)=O)cc(OC)c(OC)c3n([C@H](c3ccccc3)C3CCOCC3)c2c1 [Example 162, 5-{9-Methanesulfonyl-6,7-dimethoxy-5-[(S)-oxan-4-yl(phenyl)methyl]-5H-pyrido[3,2-b]indol-3-yl}-4-(^2H3)methyl-1-methyl-1H-1,2,3-triazole] | < 5 |
| Cc1noc(C)c1-c1cnc2c3ccc(C(C)(C)O)cc3n(C(c3ccccc3)C3(F)CCC3)c2c1 (single isomer, unassigned) [Example 33, 2-[3-(Dimethyl-1,2-oxazol-4-yl)-5-[(1-fluorocyclobutyl)(phenyl)methyl]-5H-pyrido[3,2-b]indol-7-yl]propan-2-ol] | < 5 |
| [2H]c1c(C([2H])(C2CCOCC2)n2c3cc(C(C)(C)O)ccc3c3ncc(-c4c(C)noc4C([2H])([2H])[2H])cc32)noc1C([2H])([2H])[2H] (centres unmarked) [Example 328] | < 25 |
| Cc1nnn(C)c1-c1cnc2c3ccc(C4(O)CC4)cc3n([C@H](c3ccccc3)C3CCOCC3)c2c1 [Example 419, 1-[3-(Dimethyl-1H-1,2,3-triazol-5-yl)-5-[(S)-oxan-4-yl(phenyl)methyl]-5H-pyrido[3,2-b]indol-7-yl]cyclopropan-1-ol] | < 5 |
| Cc1noc(C)c1-c1cnc2c3ccc(S(C)(=O)=O)cc3n(Cc3ccccc3)c2c1 [Example 52, 4-(5-Benzyl-7-(methylsulfonyl)-5H-pyrido[3,2-b]indol-3-yl)-3,5-dimethyl-1,2-oxazole] | < 25 |
| [2H]C([2H])([2H])c1nnn(C)c1-c1cnc2c3c(OC)cc(C(C)(C)O)cc3n(C(c3ccncc3F)C3CCOCC3)c2c1 (centres unmarked) [Example 347, 2-{5-[(3-Fluoropyridin-4-yl)(oxan-4-yl)methyl]-9-methoxy-3-[4-(^2H3)methyl-1-methyl-1H-1,2,3-triazol-5-yl]-5H-pyrido[3,2-b]indol-7-yl}propan-2-ol] | < 5 |
| [2H]C([2H])([2H])c1nnn(C)c1-c1cnc2c3ccc(S(C)(=O)=O)cc3n(C(c3cc(C)on3)C3CCOCC3)c2c1 (centres unmarked) [Example 330, 5-{7-Methanesulfonyl-5-[(5-methyl-1,2-oxazol-3-yl)(oxan-4-yl)methyl]-5H-pyrido[3,2-b]indol-3-yl}-4-(^2H3)methyl-1-methyl-1H-1,2,3-triazole] | < 25 |
| Cc1nnn(C)c1-c1cnc2c3cc(C(C)(C)O)ccc3n([C@H](c3ccc(F)cc3)C3CCOCC3)c2c1 [Example 176, 2-[3-(Dimethyl-1H-1,2,3-triazol-5-yl)-5-[(S)-(4-fluorophenyl)(oxan-4-yl)methyl]-5H-pyrido[3,2-b]indol-8-yl]propan-2-ol] | < 5 |

| SMILES | IC50 [nM] |
| --- | --- |
| Cc1nnn(C)c1-c1cnc2c3ccc(C(C)(C)O)cc3n(C(c3c(F)cc(F)cc3F)C3CCOCC3)c2c1 (single isomer, unassigned) [Example 102, 2-[3-(Dimethyl-1H-1,2,3-triazol-5-yl)-5-[oxan-4-yl(2,4,6-trifluorophenyl)methyl]-5H-pyrido[3,2-b]indol-7-yl]propan-2-ol] | < 5 |
| Cc1cc(C(C2CCOCC2)n2c3cc(C(C)(C)O)ccc3c3ncc(-c4c(C)nnn4C)cc32)n(C)n1 (single isomer, unassigned) [Example 341, 2-[3-(Dimethyl-1H-1,2,3-triazol-5-yl)-5-[(1,3-dimethyl-1H-pyrazol-5-yl)(oxan-4-yl)methyl]-5H-pyrido[3,2-b]indol-7-yl]propan-2-ol] | < 5 |
| [2H]C([2H])([2H])c1nnn(C)c1-c1cnc2c3c(NCCCC(=O)O)ccc(S(C)(=O)=O)c3n([C@H](c3ccccc3)C3CCOCC3)c2c1 [Example 225, 4-({6-Methanesulfonyl-3-[4-(^2H3)methyl-1-methyl-1H-1,2,3-triazol-5-yl]-5-[(S)-oxan-4-yl(phenyl)methyl]-5H-pyrido[3,2-b]indol-9-yl}amino)butanoic acid] | < 25 |
| [2H]C([2H])(O)c1ccc2c3ncc(-c4c(C)nnn4C)cc3n([C@H](c3ccccc3)C3CCOCC3)c2c1 [Example 407, [3-(Dimethyl-1H-1,2,3-triazol-5-yl)-5-[(S)-oxan-4-yl(phenyl)methyl]-5H-pyrido[3,2-b]indol-7-yl](^2H2)methanol] | < 5 |
| [2H]C([2H])([2H])c1nnn(C)c1-c1cnc2c3ccc(C(C)(C)O)c(F)c3n([C@H](c3ccccc3F)C3CCOCC3)c2c1 [Example 272, 2-{6-Fluoro-5-[(S)-(2-fluorophenyl)(oxan-4-yl)methyl]-3-[4-(^2H3)methyl-1-methyl-1H-1,2,3-triazol-5-yl]-5H-pyrido[3,2-b]indol-7-yl}propan-2-ol] | < 5 |
| Cc1nnn(C)c1-c1cnc2c3cc(F)c(C(C)(O)C4CC4)c(F)c3n([C@H](c3ccccc3)C3CCOCC3)c2c1 (single isomer, unassigned) [Example 449] | < 5 |
| [2H]C([2H])([2H])c1onc(C)c1-c1cnc2c3ccc(C(C)(C)O)cc3n(C([2H])(c3ccncc3F)C3CCOCC3)c2c1 (centres unmarked) [Example 343, 2-{5-[(3-Fluoropyridin-4-yl)(oxan-4-yl)(^2H)methyl]-3-[5-(^2H3)methyl-3-methyl-1,2-oxazol-4-yl]-5H-pyrido[3,2-b]indol-7-yl}propan-2-ol] | < 5 |
| [2H]C([2H])([2H])c1nnn(C)c1-c1cnc2c3ccc(C(C)(C)O)cc3n(C(c3ccc(F)cc3F)C3CCOCC3)c2c1 (centres unmarked) [Example 281, 2-{5-[(2,4-Difluorophenyl)(oxan-4-yl)methyl]-3-[4-(^2H3)methyl-1-methyl-1H-1,2,3-triazol-5-yl]-5H-pyrido[3,2-b]indol-7-yl}propan-2-ol] | < 5 |
| [2H]C([2H])([2H])c1nnn(C)c1-c1cnc2c3c(OC)cc(S(C)(=O)=O)cc3n([C@H](c3ccccc3)C3CCOCC3)c2c1 [Example 197, 5-{7-Methanesulfonyl-9-methoxy-5-[(S)-oxan-4-yl(phenyl)methyl]-5H-pyrido[3,2-b]indol-3-yl}-4-(^2H3)methyl-1-methyl-1H-1,2,3-triazole] | < 5 |
| [2H]C([2H])([2H])c1nnn(C)c1-c1cnc2c3c(OCC(C)(F)F)ccc(S(C)(=O)=O)c3n(C(c3ncccc3F)C3CCOCC3)c2c1 (centres unmarked) [Example 247, 2-{[9-(2,2-Difluoropropoxy)-6-methanesulfonyl-3-[4-(^2H3)methyl-1-methyl-1H-1,2,3-triazol-5-yl]-5H-pyrido[3,2-b]indol-5-yl](oxan-4-yl)methyl}-3-fluoropyridine] | < 5 |
| [2H]C([2H])([2H])c1nnn(C)c1-c1cnc2c3ccc(C(C)(C)O)cc3n(C(c3ncccc3C(F)(F)F)C3CCOCC3)c2c1 (single isomer, unassigned) [Example 318] | < 5 |
| [2H]C([2H])([2H])c1nnn(C)c1-c1cnc2c3c(S(C)(=O)=O)cc(F)c(OC)c3n([C@H](c3ccccc3)C3CCOCC3)c2c1 [Example 163, 5-{7-Fluoro-9-methanesulfonyl-6-methoxy-5-[(S)-oxan-4-yl(phenyl)methyl]-5H-pyrido[3,2-b]indol-3-yl}-4-(^2H3)methyl-1-methyl-1H-1,2,3-triazole] | < 5 |
| Cc1nnn(C)c1-c1cnc2c3c(S(C)(=O)=O)cccc3n(C(c3ccccc3F)C3CCOCC3)c2c1 (single isomer, unassigned) [Example 115, 5-{5-[(2-Fluorophenyl)(oxan-4-yl)methyl]-9-methanesulfonyl-5H-pyrido[3,2-b]indol-3-yl}-1,4-dimethyl-1H-1,2,3-triazole] | < 5 |
| Cc1noc(C)c1-c1cnc2c3ccc(C(C)(C)O)cc3n([C@H](c3ccc(F)cc3)C3CCC3)c2c1 [Example 15] | < 5 |
| Cc1nnn(C)c1-c1cnc2c3ccc(C(C)(C)O)cc3n(C(c3ncccc3Cl)C3CCOCC3)c2c1 (single isomer, unassigned) [Example 304] | < 5 |
| Cc1noc(C)c1-c1cnc2c3ccc(C(C)(C)O)cc3n(C(c3c(F)cccc3F)C3CCOCC3)c2c1 (single isomer, unassigned) [Example 143, 2-{5-[(2,6-Difluorophenyl)(oxan-4-yl)methyl]-3-(dimethyl-1,2-oxazol-4-yl)-5H-pyrido[3,2-b]indol-7-yl}propan-2-ol] | < 5 |

Reference: patent US10112941B2, “Tricyclic compounds as anticancer agents” (BRISTOL-MYERS SQUIBB COMPANY, priority 2013, dated 2018)
